The test has as its target T1, HDAC6 (Homo sapiens, UniProt Q9UBN7).
T1 sequence (Q9UBN7 1-1215): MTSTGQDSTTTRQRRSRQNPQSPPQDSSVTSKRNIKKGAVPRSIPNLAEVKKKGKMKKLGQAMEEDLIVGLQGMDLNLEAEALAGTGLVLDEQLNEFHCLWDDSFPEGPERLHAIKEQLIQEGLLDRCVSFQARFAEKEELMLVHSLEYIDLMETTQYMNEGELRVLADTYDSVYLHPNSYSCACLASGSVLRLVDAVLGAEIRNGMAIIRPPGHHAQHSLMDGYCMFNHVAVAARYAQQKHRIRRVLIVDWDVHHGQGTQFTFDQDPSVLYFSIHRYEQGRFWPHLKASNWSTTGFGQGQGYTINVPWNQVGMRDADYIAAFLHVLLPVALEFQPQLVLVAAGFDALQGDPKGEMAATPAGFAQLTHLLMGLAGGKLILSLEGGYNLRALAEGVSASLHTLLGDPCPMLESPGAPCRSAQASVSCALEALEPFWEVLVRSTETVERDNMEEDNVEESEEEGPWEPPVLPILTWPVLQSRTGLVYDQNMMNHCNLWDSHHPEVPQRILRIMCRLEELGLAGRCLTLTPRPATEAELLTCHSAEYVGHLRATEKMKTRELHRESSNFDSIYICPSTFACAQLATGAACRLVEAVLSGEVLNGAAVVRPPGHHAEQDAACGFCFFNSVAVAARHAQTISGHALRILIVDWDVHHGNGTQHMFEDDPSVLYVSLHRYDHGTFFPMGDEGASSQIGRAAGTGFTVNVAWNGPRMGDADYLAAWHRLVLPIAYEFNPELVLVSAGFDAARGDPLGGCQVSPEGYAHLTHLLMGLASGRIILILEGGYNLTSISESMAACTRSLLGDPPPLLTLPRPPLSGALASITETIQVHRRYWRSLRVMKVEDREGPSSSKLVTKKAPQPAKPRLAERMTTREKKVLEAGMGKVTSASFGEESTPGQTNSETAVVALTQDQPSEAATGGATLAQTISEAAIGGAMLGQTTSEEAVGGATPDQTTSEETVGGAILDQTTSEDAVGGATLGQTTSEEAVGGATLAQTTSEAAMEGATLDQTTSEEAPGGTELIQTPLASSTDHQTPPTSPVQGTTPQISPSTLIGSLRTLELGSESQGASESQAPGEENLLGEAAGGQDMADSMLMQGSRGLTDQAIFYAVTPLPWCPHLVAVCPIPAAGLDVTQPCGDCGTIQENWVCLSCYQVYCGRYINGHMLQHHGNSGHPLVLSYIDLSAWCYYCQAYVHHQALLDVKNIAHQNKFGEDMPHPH
As to the kind of experiment: In vitro histone deacetylase assay: enzymatic HDAC6 electrophoretic mobility shift assay. The format is biochemical. The settings on record: full length human recombinant HDAC6, 1 nM enzyme, 2 μM peptide substrate RHKK(Ac)-NH2, 25° C.; read-out: Inhibitory Concentration (IC50) Values for Representative Compounds against HDAC6, Activity Range. The protocol: The enzymatic HDAC6 assay was performed using electrophoretic mobility shift assay. […] The enzymatic reactions were assembled in 384 well plates in a total volume of 25 μL in a reaction buffer composing: 100 mM HEPES, pH7.5, 25 mM KCl, 0.1% bovine serum albumin, 0.01% Triton X-100, 1% DMSO (from compounds) 2 μM of the fluorescently labeled peptide substrate and enzyme. The enzyme was added at a final concentration of 1 nM. The peptide substrate RHKK(Ac)-NH2 was used. The compounds were tested at 12 concentrations spaced by 3× dilution intervals. Negative control samples (0%-inhibition in the absence of inhibitor) and positive control samples (100%-inhibition) were assembled in replicates of four in each assay plate. The reactions were incubated at 25° C. and quenched by the addition of 45 μL of termination buffer (100 mM HEPES, pH 7.5, 0.01% Triton X-100, 0.05% SDS).
The terminated assay plates were analyzed on LabChip® 3000 microfluidic electrophoresis instrument (Perkin Elmer/Caliper Life Sciences). The fluorescence intensity of the electrophoretically separated de-acetylated product and substrate peptide was measured. Activity in each sample was determined as the product to sum ratio (PSR): P/(S+P), where P is the peak height of the product peptide and S is the peak height of the substrate peptide. Percent inhibition (Pinh) is determined using the following equation:
Pinh=(PSR0%−PSRinh)/(PSR0%−PSR100%)*100, where PSRinh is the product sum ratio in the presence of inhibitor, PSR0% is the average product sum ration in the absence of inhibitor and PSR100% is the average product sum ratio in 100%-inhibition control samples. The IC50 values of inhibitors were determined by fitting the %-inhibition curves with 4 parameter dose-response model using XLfit 4 software.
(In general: Mobility shift assays separate free from complexed probe on a gel.)

As to `O=C(NO)c1ccc2c(c1)OCCN(c1ccccc1)C2` [N-hydroxy-4-phenyl-2,3,4,5-tetrahydrobenzo[f][1,4]oxazepine-8-carboxamide], the IC50 was more than 0.5 µM.

For the compound `COc1ccc(S(=O)(=O)N2CCOc3ccc(C(=O)NO)cc3C2)cc1`, the IC50 was 0.1 to 0.5 µM.

Consider `C[C@H]1COc2cc(C(=O)NO)ccc2CN1c1ccncc1` [(S)-N-hydroxy-3-methyl-4-(pyridin-4-yl)-2,3,4,5-tetrahydrobenzo[f][1,4]oxazepine-8-carboxamide], for which the IC50 fell in the range of 0.1 to 0.5 µM.

As to `CC[C@H]1COc2cc(C(=O)NO)ccc2CN1Cc1ccc(OC)cc1` [(S)-3-ethyl-N-hydroxy-4-(4-methoxybenzyl)-2,3,4,5-tetrahydrobenzo[f][1,4]oxazepine-8-carboxamide], the IC50 was not above 0.1 µM.

Take `COc1ccc(CN2CCOc3cc(C(=O)NO)ccc3[C@H]2C)cc1` [(R)-N-hydroxy-4-(4-methoxybenzyl)-5-methyl-2,3,4,5-tetrahydrobenzo[f][1,4]oxazepine-8-carboxamide]: the IC50 is more than 0.5 µM.

Take `C[C@H]1COc2cc(C(=O)NO)ccc2CN1S(=O)(=O)c1ccc(F)cc1` [(S)-4-((4-fluorophenyl)sulfonyl)-N-hydroxy-3-methyl-2,3,4,5-tetrahydrobenzo[f][1,4]oxazepine-8-carboxamide]: the IC50 was 0.1 to 0.5 µM.

As for `CCOC(=O)N1Cc2ccc(C(=O)NO)cc2OC[C@@H]1C` [ethyl(S)-8-(hydroxycarbamoyl)-3-methyl-2,3-dihydrobenzo[f][1,4]oxazepine-4(5H)-carboxylate], the IC50 was not above 0.1 µM.

For `COC[C@H]1COc2cc(C(=O)NO)ccc2CN1C` [(S)-N-hydroxy-3-(methoxymethyl)-4-methyl-2,3,4,5-tetrahydrobenzo[f][1,4]oxazepine-8-carboxamide], the IC50 is not above 0.1 µM.

Consider `C[C@H]1COc2cc(C(=O)NO)ccc2CN1c1ccc(F)cc1` [(S)-4-(4-fluorophenyl)-N-hydroxy-3-methyl-2,3,4,5-tetrahydrobenzo[f][1,4]oxazepine-8-carboxamide], for which the IC50 was not above 0.1 µM.

As to `O=C1CN(Cc2ccncc2)Cc2cc(C(=O)NO)ccc2N1`, the IC50 lay in the range of 0.1 to 0.5 µM.

Take `COc1ccc(NC(=O)N2Cc3ccc(C(=O)NO)cc3O[C@@H](c3ccccc3)C2)cc1` [(S)-N8-hydroxy-N4-(4-methoxyphenyl)-2-phenyl-2,3-dihydrobenzo[f][1,4]oxazepine-4,8(5H)-dicarboxamide]: the IC50 is not above 0.1 µM.

Regarding `O=C(NO)c1ccc2c(c1)OCCN(Cc1ccccc1)S2(=O)=O`, the IC50 was more than 0.5 µM.

For the compound `CC(C)[C@H]1COc2cc(C(=O)NO)ccc2CN1c1ccncc1` [(S)-N-hydroxy-3-isopropyl-4-(pyridin-4-yl)-2,3,4,5-tetrahydrobenzo[f][1,4]oxazepine-8-carboxamide], the IC50 was more than 0.5 µM.

Turning to `O=C(NO)c1ccc2c(c1)OCCN(C(=O)N1CCOCC1)C2` [N-hydroxy-4-(morpholine-4-carbonyl)-2,3,4,5-tetrahydrobenzo[f][1,4]oxazepine-8-carboxamide], the IC50 is 0.1 to 0.5 µM.

With `CCS(=O)(=O)N1Cc2ccc(C(=O)NO)cc2OC[C@@H]1C` [(S)-4-(ethylsulfonyl)-N-hydroxy-3-methyl-2,3,4,5-tetrahydrobenzo[f][1,4]oxazepine-8-carboxamide], the IC50 is not above 0.1 µM.

On to `C[C@H]1COc2cc(C(=O)NO)ccc2CN1c1cccc(C(F)(F)F)c1` [(S)-N-hydroxy-3-methyl-4-(3-(trifluoromethyl)phenyl)-2,3,4,5-tetrahydrobenzo[f][1,4]oxazepine-8-carboxamide], for which the IC50 lay in the range of 0.1 to 0.5 µM.

As to `COc1ccc(CN2Cc3ccc(C(=O)NO)cc3O[C@@H](C)C2)cc1`, the IC50 is 0.1 to 0.5 µM.

For the compound `C[C@H]1COc2cc(C(=O)NO)ccc2CN1C(=O)Nc1cccnc1` [(S)-N8-hydroxy-3-methyl-N4-(pyridin-3-yl)-2,3-dihydrobenzo[f][1,4]oxazepine-4,8(5H)-dicarboxamide], the IC50 is not above 0.1 µM.

Consider `O=C(NO)c1ccc2c(c1)OCCN(c1nc3ccccc3[nH]1)C2`, for which the IC50 was not above 0.1 µM.

On to `COC[C@@H]1COc2cc(C(=O)NO)ccc2CN1C` [(R)-N-hydroxy-3-(methoxymethyl)-4-methyl-2,3,4,5-tetrahydrobenzo[f][1,4]oxazepine-8-carboxamide], for which the IC50 is not above 0.1 µM.

For `COc1ccc(CN2CCOc3ccc(C(=O)NO)cc3C2)cc1`, the IC50 is more than 0.5 µM.

Regarding `C[C@H]1COc2cc(C(=O)NO)ccc2CN1c1ccccc1F` [(S)-4-(2-fluorophenyl)-N-hydroxy-3-methyl-2,3,4,5-tetrahydrobenzo[f][1,4]oxazepine-8-carboxamide], the IC50 was not above 0.1 µM.

For the compound `O=C1CN(Cc2cc(Cl)cc(Cl)c2)Cc2cc(C(=O)NO)ccc2N1`, the IC50 is not above 0.1 µM.

With `COC[C@@H]1COc2cc(C(=O)NO)ccc2CN1Cc1ccc(OC)cc1` [(R)-N-hydroxy-4-(4-methoxybenzyl)-3-(methoxymethyl)-2,3,4,5-tetrahydrobenzo[f][1,4]oxazepine-8-carboxamide], the IC50 was not above 0.1 µM.

`O=C1CN(Cc2ccn3ccnc3c2)Cc2cc(C(=O)NO)ccc2N1`: the IC50 fell in the range of 0.1 to 0.5 µM.

In the case of `O=C1CN(Cc2ccc(Oc3ccccc3)cc2)Cc2cc(C(=O)NO)ccc2N1`, the IC50 is not above 0.1 µM.

For the compound `O=C1CN(CC2CC2)Cc2cc(C(=O)NO)ccc2N1`, the IC50 is 0.1 to 0.5 µM.

As for `O=C1CN(Cc2cncnc2)Cc2cc(C(=O)NO)ccc2N1`, the IC50 was more than 0.5 µM.

With `O=C(NO)c1ccc2c(c1)OCCN(c1cccnc1)C2` [N-hydroxy-4-(pyridin-3-yl)-2,3,4,5-tetrahydrobenzo[f][1,4]oxazepine-8-carboxamide], the IC50 was in the range of 0.1 to 0.5 µM.

Take `COc1ccc(CN2CCN(C)c3ccc(C(=O)NO)cc3C2)cc1`: the IC50 was more than 0.5 µM.

For `CN1CCN(C(=O)N2CCOc3cc(C(=O)NO)ccc3C2)CC1` [N-hydroxy-4-(4-methylpiperazine-1-carbonyl)-2,3,4,5-tetrahydrobenzo[f][1,4]oxazepine-8-carboxamide], the IC50 was more than 0.5 µM.

Consider `O=C1CN(c2ccccc2)Cc2cc(C(=O)NO)ccc2N1` [N-hydroxy-2-oxo-4-phenyl-2,3,4,5-tetrahydro-1H-benzo[e][1,4]diazepine-7-carboxamide], for which the IC50 is more than 0.5 µM.

With `C[C@H]1COc2cc(C(=O)NO)ccc2CN1c1ccc(C(F)(F)F)cc1` [(S)-N-hydroxy-3-methyl-4-(4-(trifluoromethyl)phenyl)-2,3,4,5-tetrahydrobenzo[f][1,4]oxazepine-8-carboxamide], the IC50 is 0.1 to 0.5 µM.

For the compound `O=C(NO)c1ccc2c(c1)OCCN(CC1CCCCC1)C2`, the IC50 was in the range of 0.1 to 0.5 µM.

Take `O=C(NO)c1ccc2c(c1)OCCN(c1ccccn1)C2` [N-hydroxy-4-(pyridin-2-yl)-2,3,4,5-tetrahydrobenzo[f][1,4]oxazepine-8-carboxamide]: the IC50 lay in the range of 0.1 to 0.5 µM.

Take `O=C1CN(Cc2ccc(-n3cccn3)cc2)Cc2cc(C(=O)NO)ccc2N1`: the IC50 is not above 0.1 µM.

As for `CN1Cc2ccc(C(=O)NO)cc2OCC1(C)C` [N-hydroxy-3,3,4-trimethyl-2,3,4,5-tetrahydrobenzo[f][1,4]oxazepine-8-carboxamide], the IC50 was not above 0.1 µM.

Values taken from US11279681B2, “3-alkyl bicyclic [4,5,0] hydroxamic acids as HDAC inhibitors” (Valo Health, Inc., priority 2015, dated 2022).
